From PubChem BioAssay (NCI)
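1) Cells in 96-well plates. 2) Compound, 48 h, 5 concentrations. 3) Linear interpolation between surrounding doses. 4) Unreached endpoint = highest concentration. At the TGI there is no net growth.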

What was measured:
Assay in all cases: NCI anticancer screen, dose series, 48 h
[1] = tested on: RXF 393 renal
[2] = tested on: HL-60(TB) leukemia
[3] = tested on: SR leukemia
[4] = tested on: MDA-MB-435
[5] = tested on: KM12 colon
[6] = tested on: SK-MEL-28 melanoma
[7] = tested on: TK-10 renal
[8] = tested on: IGROV1 ovarian
[9] = tested on: PC-3 prostate
[10] = tested on: SNB-75 CNS
[11] = tested on: NCI-H460 lung
[12] = tested on: A549 NSCLC
[13] = tested on: HCT-15 colon
[14] = tested on: SK-MEL-2 melanoma
[15] = tested on: OVCAR-5 ovarian
[16] = tested on: SNB-19 CNS
[17] = tested on: UACC-257 melanoma
[18] = tested on: MDA-N
[19] = tested on: NCI/ADR-RES ovarian
[20] = tested on: SF-268 CNS
[21] = tested on: SW-620 colon
[22] = tested on: M14 melanoma
[23] = tested on: A498 renal
[24] = tested on: NCI-H522 lung
[25] = tested on: MOLT-4 leukemia
[26] = tested on: T-47D breast
[27] = tested on: UACC-62 melanoma
[28] = tested on: CCRF-CEM leukemia
[29] = tested on: COLO 205 colon
[30] = tested on: HCC-2998 colon
[31] = tested on: OVCAR-4 ovarian
[32] = tested on: CAKI-1 renal
[33] = tested on: LOX IMVI melanoma
[34] = tested on: 786-0 renal
[35] = tested on: K-562 leukemia
[36] = tested on: ACHN renal
[37] = tested on: SF-295 CNS
[38] = tested on: MALME-3M melanoma
[39] = tested on: RPMI-8226 leukemia
[40] = tested on: DU-145 prostate
[41] = tested on: SF-539 CNS
[42] = tested on: MDA-MB-231 breast
[43] = tested on: U251 CNS
[44] = tested on: EKVX NSCLC
[45] = tested on: OVCAR-8 ovarian
[46] = tested on: SN12C renal
[47] = tested on: HCT-116 colon
[48] = tested on: SK-MEL-5 melanoma
[49] = tested on: NCI-H226 lung
[50] = tested on: HOP-92 NSCLC
[51] = tested on: UO-31 renal
[52] = tested on: MCF7 breast
[53] = tested on: BT-549 breast
[54] = tested on: HS 578T breast
[55] = tested on: OVCAR-3 ovarian
[56] = tested on: HOP-62 NSCLC
[57] = tested on: SK-OV-3 ovarian
[58] = tested on: NCI-H23 lung
[59] = tested on: HT29 colon

## N#Cc1c(N)c2c(c(-c3ccccc3)c1-c1ccccc1)C(=O)N(Nc1ccccc1)C2=O
[1]
  TGI: 65.2 µM
[2]
  TGI: > 100 µM
[3]
  TGI: > 100 µM
[4]
  TGI: > 100 µM
[5]
  TGI: 56.4 µM
[6]
  TGI: > 100 µM
[7]
  TGI: > 100 µM
[8]
  TGI: > 100 µM
[9]
  TGI: > 100 µM
[10]
  TGI: > 100 µM
[11]
  TGI: > 100 µM
[12]
  TGI: > 100 µM
[13]
  TGI: > 100 µM
[14]
  TGI: > 100 µM
[15]
  TGI: > 100 µM
[16]
  TGI: > 100 µM
[17]
  TGI: > 100 µM
[18]
  TGI: > 100 µM
[19]
  TGI: > 100 µM
[20]
  TGI: > 100 µM
[21]
  TGI: > 100 µM
[22]
  TGI: 87.4 µM
[23]
  TGI: > 100 µM
[24]
  TGI: > 100 µM
[25]
  TGI: > 100 µM
[26]
  TGI: 71 µM
[27]
  TGI: > 100 µM
[28]
  TGI: > 100 µM
[29]
  TGI: 56.7 µM
[30]
  TGI: > 100 µM
[31]
  TGI: > 100 µM
[32]
  TGI: > 100 µM
[33]
  TGI: 86.8 µM
[34]
  TGI: > 100 µM
[35]
  TGI: > 100 µM
[36]
  TGI: > 100 µM
[37]
  TGI: > 100 µM
[38]
  TGI: > 100 µM
[39]
  TGI: > 100 µM
[40]
  TGI: > 100 µM
[41]
  TGI: > 100 µM
[42]
  TGI: > 100 µM
[43]
  TGI: > 100 µM
[44]
  TGI: > 100 µM
[45]
  TGI: > 100 µM
[46]
  TGI: > 100 µM
[47]
  TGI: 43.7 µM
[48]
  TGI: 78.5 µM
[49]
  TGI: > 100 µM
[50]
  TGI: > 100 µM
[51]
  TGI: 78.3 µM
[52]
  TGI: > 100 µM
[53]
  TGI: > 100 µM
[54]
  TGI: > 100 µM
[55]
  TGI: 78.1 µM

## CC(C)C(C/C=C1/CC(CO)(COC(=O)C(C)(C)C)OC1=O)C(C)C (stereo not drawn)
[1]
  TGI: 30.5 µM
[2]
  TGI: 16.2 µM
[3]
  TGI: > 50.5 µM
[4]
  TGI: 21.5 µM
[56]
  TGI: 18.8 µM
[5]
  TGI: 27.3 µM
[6]
  TGI: 30.6 µM
[7]
  TGI: 18 µM
[8]
  TGI: 31.5 µM
[9]
  TGI: 21.1 µM
[10]
  TGI: 21.1 µM
[11]
  TGI: 25.7 µM
[12]
  TGI: 15.3 µM
[13]
  TGI: 34.6 µM
[14]
  TGI: 29.9 µM
[15]
  TGI: 24.3 µM
[16]
  TGI: 26.1 µM
[17]
  TGI: 32.7 µM
[18]
  TGI: 19.6 µM
[19]
  TGI: 36.6 µM
[20]
  TGI: 23.5 µM
[21]
  TGI: 19 µM
[22]
  TGI: 24.4 µM
[23]
  TGI: 21.8 µM
[24]
  TGI: 27.6 µM
[25]
  TGI: 35.6 µM
[26]
  TGI: 23.3 µM
[27]
  TGI: 26 µM
[28]
  TGI: 36.5 µM
[29]
  TGI: 5.32 µM
[30]
  TGI: 15.2 µM
[31]
  TGI: 31.5 µM
[32]
  TGI: 17.9 µM
[33]
  TGI: 28.4 µM
[34]
  TGI: 18.2 µM
[35]
  TGI: 24.9 µM
[36]
  TGI: 21 µM
[57]
  TGI: 30.7 µM
[37]
  TGI: 17.9 µM
[38]
  TGI: 19.2 µM
[40]
  TGI: 23.4 µM
[41]
  TGI: 15.4 µM
[58]
  TGI: 23.8 µM
[42]
  TGI: 17.1 µM
[43]
  TGI: 27.5 µM
[44]
  TGI: 23 µM
[45]
  TGI: 36.4 µM
[46]
  TGI: 23.3 µM
[47]
  TGI: 27.5 µM
[48]
  TGI: 20.7 µM
[49]
  TGI: 22.7 µM
[59]
  TGI: 32.3 µM
[50]
  TGI: 25.3 µM
[51]
  TGI: 17.3 µM
[52]
  TGI: 35.6 µM
[53]
  TGI: 26.9 µM
[54]
  TGI: 11 µM
[55]
  TGI: 29.9 µM

## CN(C)Cc1cc(N=Nc2ccccc2Cl)ccc1O
[1]
  TGI: 60.8 µM
[2]
  TGI: 29.3 µM
[3]
  TGI: > 100 µM
[4]
  TGI: 32.9 µM
[56]
  TGI: 26.2 µM
[5]
  TGI: 75.5 µM
[6]
  TGI: 32.3 µM
[7]
  TGI: 65.8 µM
[8]
  TGI: > 100 µM
[9]
  TGI: > 100 µM
[10]
  TGI: 55.8 µM
[11]
  TGI: 18.2 µM
[12]
  TGI: 25.3 µM
[13]
  TGI: 75.5 µM
[15]
  TGI: 63.2 µM
[16]
  TGI: > 100 µM
[17]
  TGI: 46.3 µM
[18]
  TGI: 33.4 µM
[19]
  TGI: 74.7 µM
[20]
  TGI: > 100 µM
[21]
  TGI: 28 µM
[22]
  TGI: 44.5 µM
[23]
  TGI: 26.1 µM
[24]
  TGI: 23.5 µM
[25]
  TGI: 28.3 µM
[26]
  TGI: 71.5 µM
[27]
  TGI: 40.9 µM
[28]
  TGI: 54.2 µM
[29]
  TGI: 28.6 µM
[30]
  TGI: 26.8 µM
[31]
  TGI: > 100 µM
[32]
  TGI: 56.6 µM
[33]
  TGI: 25.3 µM
[34]
  TGI: 35.4 µM
[35]
  TGI: 38.4 µM
[36]
  TGI: 33.4 µM
[57]
  TGI: > 100 µM
[37]
  TGI: 41.2 µM
[38]
  TGI: 25.9 µM
[39]
  TGI: 81.4 µM
[40]
  TGI: 71.4 µM
[41]
  TGI: 59.5 µM
[58]
  TGI: 83.9 µM
[42]
  TGI: 86.4 µM
[43]
  TGI: 59.3 µM
[44]
  TGI: > 100 µM
[45]
  TGI: 25.3 µM
[46]
  TGI: > 100 µM
[47]
  TGI: > 100 µM
[48]
  TGI: 24.6 µM
[49]
  TGI: 40 µM
[59]
  TGI: 33.7 µM
[50]
  TGI: > 100 µM
[51]
  TGI: 36.5 µM
[52]
  TGI: 33.5 µM
[53]
  TGI: 85.4 µM
[54]
  TGI: 48.4 µM
[55]
  TGI: 66.9 µM

## O=C(/C=c1\oc(=O)/c(=C/C(=O)c2ccc(Cl)cc2)oc1=O)c1ccc(Cl)cc1
[1]
  TGI: > 100 µM
[2]
  TGI: > 100 µM
[3]
  TGI: > 100 µM
[4]
  TGI: > 100 µM
[56]
  TGI: > 100 µM
[5]
  TGI: > 100 µM
[6]
  TGI: > 100 µM
[7]
  TGI: > 100 µM
[8]
  TGI: > 100 µM
[9]
  TGI: > 100 µM
[11]
  TGI: > 100 µM
[12]
  TGI: > 100 µM
[13]
  TGI: > 100 µM
[14]
  TGI: > 100 µM
[15]
  TGI: > 100 µM
[16]
  TGI: > 100 µM
[17]
  TGI: > 100 µM
[18]
  TGI: > 100 µM
[19]
  TGI: > 100 µM
[20]
  TGI: > 100 µM
[22]
  TGI: > 100 µM
[23]
  TGI: > 100 µM
[24]
  TGI: 72.9 µM
[25]
  TGI: 56 µM
[26]
  TGI: > 100 µM
[27]
  TGI: > 100 µM
[28]
  TGI: > 100 µM
[29]
  TGI: > 100 µM
[30]
  TGI: > 100 µM
[31]
  TGI: > 100 µM
[32]
  TGI: > 100 µM
[33]
  TGI: > 100 µM
[34]
  TGI: > 100 µM
[35]
  TGI: > 100 µM
[36]
  TGI: > 100 µM
[57]
  TGI: > 100 µM
[37]
  TGI: > 100 µM
[38]
  TGI: > 100 µM
[39]
  TGI: > 100 µM
[40]
  TGI: > 100 µM
[41]
  TGI: > 100 µM
[58]
  TGI: > 100 µM
[42]
  TGI: > 100 µM
[43]
  TGI: > 100 µM
[44]
  TGI: > 100 µM
[45]
  TGI: > 100 µM
[46]
  TGI: > 100 µM
[47]
  TGI: > 100 µM
[48]
  TGI: > 100 µM
[49]
  TGI: > 100 µM
[59]
  TGI: > 100 µM
[50]
  TGI: > 100 µM
[51]
  TGI: > 100 µM
[52]
  TGI: > 100 µM
[53]
  TGI: 91 µM
[54]
  TGI: > 100 µM
[55]
  TGI: > 100 µM
